# Test system: SR-786 tumor cells (SR786 xenograft ALCL model)
# Assay: In vivo tumor efficacy model: SR786 xenograft ALCL model, SGN35 and MLN8237 alone or in combination
# Set-up: species or system CB17 SCID female mice
# Settings: for average tumor volume day 15 / average tumor volume day 21: in mm³
# Experimental: SR-786 (4.0×10^6) tumor cells in RPMI-1640 media were aseptically injected into the subcutaneous space in the right dorsal flank of CB17 SCID female mice (Taconic Farms, Inc) using a 26 G 5/8 needle.
# Brentuximab vedotin (SGN35), one vial (Seattle Genetics) was reconstituted in 10.5 ml sterile water to give a stock solution at 4.76 mg/ml concentration. The stock solution was formulated in 0.9% saline to reach the desired concentration and administered by intraperitoneal injection (IP) q4Dx21 days at 0.3 mg/kg and 0.4 mg/kg.
# MLN8237 was formulated in 10% hydroxypropyl-beta-cyclodextrin and 1% sodium bicarbonate (10% HPbCD+1% NaHCO3) and administered by oral injection (1 cc syringe, 20-22 gauge) on QD schedule at 10 mg/kg and 20 mg/kg for 21 days. MLN8237 as used in the experimental section refers to alisertib sodium salt and the amount referenced is the amount of alisertib used.
# Tumors were measured twice weekly using a vernier caliper. Tumor volumes were calculated using standard procedures (0.5×[…]). When the tumors reached a volume of approximately 200 mm^3 (SR-786), mice were randomized into 6-8 groups as described in the tables below, and injected with vehicle, MLN8237 or SGN35 or the combination of MLN8237 with SGN35, at various doses as described below in Tables 1 and 2. Tumor size and body weight were measured approximately twice a week for the duration of the study. Mice were euthanized when their tumor volume reached 10% of their body weight, or when the average tumor volume of a treatment or control group reached approximately 2000 mm^3. Tumor growth continued to be monitored after the dosing period in this study. Average tumor volume is reported as a function of time for selected groups in FIG. 1A and FIG. 1B.
# The synergy analysis is based on the tumor volume data from day 0 to 21. Volume measurements below 25 cubic mm are excluded from the analysis because very low volumes cannot be measured accurately. The remaining measurements are log transformed and fit to a simple linear model with the measurement day as a covariate. The data are fit separately for the different animals to yield an estimated tumor growth rate for each animal in each treatment group. Based on the growth rates, the synergy score for the combination of agents A and B is defined as 100*(mean(μAB)−mean(μA)−mean(μB)+mean(μctl))/mean(μctl): where μAB, μA, μB, and μctl are the mean tumor growth rates for animals in the combination group, the A group, the B group, and the control group, respectively. The standard error of the synergy score is computed based on the variation in the growth rates among the animals. […] If the P-value is above 0.05, then the combination is considered to be additive. If the P-value is below 0.05, and the synergy score is less than zero, then the combination is considered to be synergistic. […] Otherwise, the combination is classified as antagonistic. Results
Molecule,"average tumor volume day 15 (10 mg/kg MLN8237, QD, P.O)","average tumor volume day 21 (10 mg/kg MLN8237, QD, P.O)","average tumor volume day 15 (20 mg/kg MLN8237, QD, P.O)","average tumor volume day 21 (20 mg/kg MLN8237, QD, P.O)",tumor growth compared to the control vehicle group (single agent MLN8237 P.O 10 mg/kg and 20 mg/kg QD),"average tumor volume day 15 (0.3 mg/kg SGN35, Q4d, I.P)","average tumor volume day 21 (0.3 mg/kg SGN35, Q4d, I.P)","average tumor volume day 15 (0.4 mg/kg SGN35, Q4d, I.P)","average tumor volume day 21 (0.4 mg/kg SGN35, Q4d, I.P)",tumor growth compared to the control vehicle group (single agent SGN35 0.3 and 0.4 mg/kg I.P Q4d)
"COc1cc(Nc2ncc3c(n2)-c2ccc(Cl)cc2C(c2c(F)cccc2OC)=NC3)ccc1C(=O)O [MLN8237, 4-{[9-chloro-7-(2-fluoro-6-methoxyphenyl)-5H-pyrimido[5,4-d][2]benzazepin-2-yl]amino}-2-methoxybenzoic acid]",625.4,1121,387.1,576.4,inhibited tumor growth,–,–,–,–,–
SGN35,–,–,–,–,–,1136.1,1676,491.3,553.8,inhibited tumor growth
